This note sets out measurements from PubChem BioAssay AID330 (DTP/NCI, 2004).

Where “and” joins values, the source holds several entries; their conditions need not be identical. Equal values may be shown once. Inconclusive results and toxic doses are left out.

For the experiment, the system named is P388 leukemia ip, CD2F1 mice, survival T/C. Briefly: NCI In Vivo Anticancer Drug Screen. Data for tumor model P388 Leukemia (intraperitoneal) in CD2F1 (CDF1) mice. Conditions: endpoint: median survival time, higher = longer survival. The gist of the method: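 Mice carrying the transplanted tumor received test compound or vehicle. Survival was recorded in each group, and the value is the treated-group measurement divided by that of the vehicle-treated control group.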

[1] abbreviates: dose: 50.0 mg/kg/injection, schedule: Q01DX005 (ip), vehicle: saline.
[2] abbreviates: dose: 100.0 mg/kg/injection, schedule: Q01DX005 (ip), vehicle: saline.
The mark [3] stands for this setting: dose: 50.0 mg/kg/injection, schedule: Q01DX009 (ip), vehicle: saline.
[4] abbreviates: dose: 100.0 mg/kg/injection, schedule: Q01DX009 (ip), vehicle: saline.
The mark [5] stands for this setting: dose: 200.0 mg/kg/injection, schedule: Q01DX009 (ip), vehicle: saline.
The mark [6] stands for this setting: dose: 1.56 mg/kg/injection, schedule: Q01DX009 (ip), vehicle: Klucel (hydroxypropylcellulose) (HPC).
Where [7] appears, read: dose: 3.12 mg/kg/injection, schedule: Q01DX009 (ip), vehicle: Klucel (hydroxypropylcellulose) (HPC).
Setting [8] is: dose: 75.0 mg/kg/injection, schedule: Q01DX009 (ip), vehicle: saline with Tween-80.
The mark [9] stands for this setting: dose: 150.0 mg/kg/injection, schedule: Q01DX009 (ip), vehicle: saline with Tween-80.
Where [10] appears, read: dose: 25.0 mg/kg/injection, schedule: Q01DX009 (ip), vehicle: saline with Tween-80.
Where [11] appears, read: dose: 50.0 mg/kg/injection, schedule: Q01DX009 (ip), vehicle: saline with Tween-80.
The mark [12] stands for this setting: dose: 100.0 mg/kg/injection, schedule: Q01DX009 (ip), vehicle: saline with Tween-80.
The mark [13] stands for this setting: dose: 12.5 mg/kg/injection, schedule: Q01DX009 (ip), vehicle: saline.
[14] abbreviates: dose: 25.0 mg/kg/injection, schedule: Q01DX009 (ip), vehicle: saline.
Where [15] appears, read: dose: 50.0 mg/kg/injection, schedule: Q01DX005 (ip), vehicle: saline with Tween-80.
The mark [16] stands for this setting: dose: 100.0 mg/kg/injection, schedule: Q01DX005 (ip), vehicle: saline with Tween-80.
Where [17] appears, read: dose: 200.0 mg/kg/injection, schedule: Q01DX005 (ip), vehicle: saline with Tween-80.
[18] abbreviates: dose: 60.0 mg/kg/injection, schedule: Q01DX005 (ip), vehicle: saline with Tween-80.
Where [19] appears, read: dose: 120.0 mg/kg/injection, schedule: Q01DX005 (ip), vehicle: saline with Tween-80.
[20] abbreviates: dose: 100.0 mg/kg/injection, schedule: Q01DX009 (ip), vehicle: Klucel (hydroxypropylcellulose) (HPC).
Setting [21] is: dose: 200.0 mg/kg/injection, schedule: Q01DX009 (ip), vehicle: Klucel (hydroxypropylcellulose) (HPC).

Consider `CC(C)(C)C(N)=S`, for which the T/C by setting is: under setting [1], 103 % of control; under setting [2], 101 % of control; (dose: 200.0 mg/kg/injection, schedule: Q01DX005 (ip), vehicle: saline) 101 % of control.

Consider `C=CC1(C)N=C1N(C)C` (centres undefined), for which the T/C runs as follows: under setting [3], 105 % of control; under setting [4], 97 % of control; under setting [5], 96 % of control.

On to `O=C(O)CCCCCCCCCOC(C[N+](=O)[O-])C(Cl)(Cl)Cl` (centres undefined), for which the T/C is, setting by setting: (dose: 50.0 mg/kg/injection, schedule: Q01DX009 (ip), vehicle: other) 102 % of control; (dose: 100.0 mg/kg/injection, schedule: Q01DX009 (ip), vehicle: other) 103 % of control; (dose: 200.0 mg/kg/injection, schedule: Q01DX009 (ip), vehicle: other) 113 % of control.

Regarding `CC(=O)C1C(=O)C=C(C)OC1=O.CC(=O)C1C(=O)C=C(C)OC1=O.[Hg]` (centres undefined), the T/C runs as follows: under setting [6], 88 % of control; under setting [7], 101 % of control; (dose: 6.25 mg/kg/injection, schedule: Q01DX009 (ip), vehicle: Klucel (hydroxypropylcellulose) (HPC)) 91 % of control and 93 % of control.

Turning to `O=C(O)CCCC(=O)NC1CC2c3ccccc3C1c1ccccc12` (centres undefined), the T/C under setting [8] is 100 % of control; the T/C (dose: 100.0 mg/kg/injection, schedule: Q04DX003 (ip), vehicle: saline sonified) is 100 % of control; the T/C under setting [9] is 100 % of control; the T/C (dose: 200.0 mg/kg/injection, schedule: Q04DX003 (ip), vehicle: saline sonified) was 105 % of control; the T/C (dose: 400.0 mg/kg/injection, schedule: Q04DX003 (ip), vehicle: saline sonified) is 100 % of control.

With `Cc1ccc(S(=O)(=O)N(CCC(c2ccccc2)c2ccccc2)S(=O)(=O)c2ccc(C)cc2)cc1`, the T/C reads like this: under setting [10], 102 % of control; under setting [11], 98 % of control; under setting [12], 100 % of control.

For `Cc1cc(C)c[n+]([O-])c1`, the T/C is, setting by setting: under setting [13], 111 % of control; under setting [14], 111 % of control; under setting [3], 111 % of control.

As for `Cc1c(C#N)c(N)nc2c(C(N)=O)nsc12`, the T/C was 98 % of control (dose: 6.25 mg/kg/injection, schedule: Q01DX005 (ip), vehicle: Klucel (hydroxypropylcellulose) (HPC)); 102 % of control (dose: 12.5 mg/kg/injection, schedule: Q01DX005 (ip), vehicle: Klucel (hydroxypropylcellulose) (HPC)); 95 % of control (dose: 25.0 mg/kg/injection, schedule: Q01DX005 (ip), vehicle: Klucel (hydroxypropylcellulose) (HPC)); 91 % of control (dose: 50.0 mg/kg/injection, schedule: Q01DX005 (ip), vehicle: Klucel (hydroxypropylcellulose) (HPC)).

`Oc1ccccc1C=NCCC[OH2+].Oc1ccccc1C=NCCC[OH2+].[Cu].[Cu]`: the T/C is, setting by setting: (dose: 25.0 mg/kg/injection, schedule: Q01DX005 (ip), vehicle: saline with Tween-80) 103 % of control; under setting [15], 100 % of control and 102 % of control and 104 % of control; under setting [16], 109 % of control.

For the compound `CC/C(=N\NS(=O)(=O)c1ccc(C)cc1)c1ccc(Br)c(Br)c1`, the T/C reads like this: under setting [3], 96 % of control; under setting [4], 100 % of control; under setting [5], 92 % of control.

On to `COc1ccc(OC)c(NC2=C(Cl)C(=O)C(Nc3cc(OC)ccc3OC)=C(Cl)C2=O)c1`, for which the T/C (dose: 12.5 mg/kg/injection, schedule: Q01DX009 (ip), vehicle: saline with Tween-80) is 98 % of control; the T/C under setting [10] was 97 % of control; the T/C under setting [11] was 90 % of control; the T/C under setting [12] is 87 % of control; the T/C (dose: 200.0 mg/kg/injection, schedule: Q01DX009 (ip), vehicle: saline with Tween-80) is 91 % of control.

On to `N#Cc1[nH]cnc1O`, for which the T/C runs as follows: under setting [15], 103 % of control; under setting [16], 101 % of control; under setting [17], 112 % of control.

On to `CC1(C)N=C(NN=C2CCCCC2)SP1(=O)NNc1ncccn1` (centres undefined), for which the T/C by setting is: (dose: 15.0 mg/kg/injection, schedule: Q01DX005 (ip), vehicle: Klucel (hydroxypropylcellulose) (HPC)) 102 % of control; (dose: 30.0 mg/kg/injection, schedule: Q01DX005 (ip), vehicle: Klucel (hydroxypropylcellulose) (HPC)) 103 % of control; (dose: 60.0 mg/kg/injection, schedule: Q01DX005 (ip), vehicle: Klucel (hydroxypropylcellulose) (HPC)) 98 % of control and 99 % of control.

As for `O=NNc1ccc(-c2ccc([N+](=O)[O-])cc2)cn1`, the T/C is 170 % of control (dose: 3.12 mg/kg/injection, schedule: Q01DX009 (ip), vehicle: saline) and 108 % of control (dose: 6.25 mg/kg/injection, schedule: Q01DX009 (ip), vehicle: saline).

Regarding `O=C(Nc1ccc(N=Nc2ccc(S(=O)(=O)O)cc2)cc1)c1ccc(N=Nc2cc(S(=O)(=O)O)c3ccccc3c2O)cc1`, the T/C was 110 % of control under setting [1] and 104 % of control under setting [2].

With `CC12CC3CC(C)(C1)CC(OCCN)(C3)C2`, the T/C is, setting by setting: under setting [18], 101 % of control; under setting [19], 104 % of control.

For the compound `[O-]/[N+]1=[N+](\[O-])c2ccccc2CCc2ccccc21`, the T/C is 100 % of control under setting [18]; 102 % of control under setting [19]; 105 % of control (dose: 240.0 mg/kg/injection, schedule: Q01DX005 (ip), vehicle: saline with Tween-80).

For the compound `COC(=O)CC(OC1CC(N)C(O)C(C)O1)c1c(O)c2c(c(O)c1CO)C(=O)c1cccc(OC)c1C2=O` (centres undefined), the T/C by setting is: (dose: 100.0 mg/kg/injection, schedule: Q04DX003 (ip), vehicle: water) 105 % of control; (dose: 200.0 mg/kg/injection, schedule: Q04DX003 (ip), vehicle: water) 121 % of control.

Consider `N#Cc1ccc(Br)cc1[N+](=O)[O-]`, for which the T/C (dose: 0.78 mg/kg/injection, schedule: Q01DX009 (ip), vehicle: Klucel (hydroxypropylcellulose) (HPC)) is 106 % of control; the T/C under setting [6] is 102 % of control; the T/C under setting [7] is 100 % of control and 96 % of control.

`O=c1oc(-c2cccc(C(Cl)Cl)c2)ns1`: the T/C is, setting by setting: under setting [20], 112 % of control; under setting [21], 107 % of control; (dose: 400.0 mg/kg/injection, schedule: Q01DX009 (ip), vehicle: Klucel (hydroxypropylcellulose) (HPC)) 105 % of control.

As to `O=c1oc2ccc3ccccc3c2cc1-n1nnc2ccccc21`, the T/C is, setting by setting: under setting [18], 91 % of control; under setting [19], 90 % of control.

As to `O=c1[nH]c2ccccc2nc1N=Nc1ccccc1`, the T/C is 96 % of control under setting [15] and 96 % of control under setting [16].

Consider `COc1ccc(C(=O)C(Br)CS(=O)(=O)c2ccc(C)cc2)cc1` (centres undefined), for which the T/C is, setting by setting: (dose: 100.0 mg/kg/injection, schedule: Q04DX002 (ip), vehicle: saline) 100 % of control; (dose: 200.0 mg/kg/injection, schedule: Q04DX002 (ip), vehicle: saline) 102 % of control; (dose: 400.0 mg/kg/injection, schedule: Q04DX002 (ip), vehicle: saline) 108 % of control.

For the compound `O=C1Nc2ccccc2/C1=C/c1ccco1`, the T/C by setting is: (dose: 50.0 mg/kg/injection, schedule: Q01DX009 (ip), vehicle: Klucel (hydroxypropylcellulose) (HPC)) 99 % of control; under setting [20], 113 % of control; under setting [21], 89 % of control.

Take `CCOC(=O)[n+]1ccc(-c2cc[n+](C(=O)OCC)cc2)cc1`: the T/C reads like this: under setting [13], 88 % of control; under setting [14], 91 % of control.

`CCNC(=S)N/N=C\C=N/NC(=S)NCC`: the T/C under setting [8] was 105 % of control; the T/C under setting [9] is 92 % of control; the T/C (dose: 300.0 mg/kg/injection, schedule: Q01DX009 (ip), vehicle: saline with Tween-80) is 103 % of control.

As to `c1ccc(/C(=N\Nc2ccccn2)c2ccccn2)cc1`, the T/C is, setting by setting: under setting [15], 112 % of control; under setting [16], 117 % of control; under setting [17], 108 % of control.
